Counter-ions that a name gives are not always drawn. Like-named read-outs stand apart in the source and are kept apart here.

The text below walks through data of publication PMC9424819, “Evaluation of commonly used cardiovascular drugs in inhibiting vonoprazan metabolism in vitro and in vivo” (Frontiers in Pharmacology, 2022).

Series [1] relates to vonoprazan metabolism (MI formation) in rat liver microsomes. As to the kind of experiment: Inhibition of vonoprazan metabolism (MI formation) in rat liver microsome incubation. It is filed as in vitro ADME. The following applies: rat, rat liver microsomes, pH 7.4, probe vonoprazan (10 µM), metabolite MI measured; RLMs, 10 µM vonoprazan, MI formation. The procedure: (§1) Eleven common-used cardiovascular drugs were chosen to detect their possible inhibition effect on vonoprazan. […] After preincubation at 37°C for 5 min in a shaking water bath, 20 mM NADPH was added to initiate the reaction, which lasted 30 min and was stopped with […] of acetonitrile. The mixture was vortexed after adding 20 µL of diazepam and then centrifugated at 13,000 rpm for 5 min. A 2 µL aliquot of the final supernatant was injected into the UPLC–MS/MS system for analysis. The relative inhibition was calculated according to the relative MI decrease compared to the control (vonoprazan naturally metabolized in RLMs). […] The same procedures were performed. Then, an inhibition mechanism experiment was conducted for further exploration. […] Both inhibitor and substrate were added to the incubation system described above. Every concentration match had three parallels. The MI concentration was detected using the same conditions to depict the Lineweaver–Burk and Dixon plots.
(§2) The concentrations of vonoprazan and MI that were detected by UPLC-MS/MS were applied to GraphPad 7.0 (GraphPad Software Inc., United States) to calculate IC50 and depict plasma concentration-time curves and Lineweaver–Burk and Dixon plots. The pharmacokinetic parameters of the compartment analysis were calculated using DAS (version 3.2.8; The People’s Hospital of Lishui) and expressed as mean ± standard deviation. The t-test was carried out by SPSS 25.0 (SPSS Inc., United States) to compare those parameters. p value < 0.05 was considered statistically significant.
(In general: Liver microsomes are vesicles of endoplasmic reticulum, rich in cytochrome P450 enzymes.)

Series [2] concerns vonoprazan metabolism in rat liver microsomes (RLMs). The series is described as above. In kind it is in vitro ADME. The procedure:
as §1, §2

The subject of series [3] is vonoprazan metabolism (MI formation) in human liver microsomes. The experiment in a line: in vitro. Particulars: pH 7.4.
A short description of series [4]: Pharmacokinetics of vonoprazan and MI in rats with or without inhibitor pretreatment. It is filed as in vivo, Sprague-Dawley rats. The following applies: for AUC(0-inf) / AUC(0-t) / Cmax / Tmax / CL/F / MRT last / MRT inf / Vd/F / half-life: male, Sprague-Dawley, rat, plasma, po, 2 mg/kg; for CL/F: read-out: CLz/F (converted); for MRT last: read-out: MRT(0-t); for MRT inf: read-out: MRT(0-∞); for Vd/F: read-out: Vz/F; for half-life: read-out: t1/2z (converted). The procedure:
The Experimental Animal Research Center of Wenzhou Medical University provided specific pathogen-free (SPF) Sprague-Dawley rats (male, 350 ± 20 g, 3 months old). This research was conducted following the principles of the Basel Declaration. […] After one week of rearing in the new environment and fasting overnight, the drug could be gavaged.
Rats were randomly divided into three groups (n = 6). […] After 7 days, on the seventh day, all groups had gavage at a single dosage of 2 mg/kg vonoprazan.
Centrifugation at 4,000 rpm for 10 min was performed to obtain 100 µL of plasma, to which was added 200 µL of acetonitrile and 20 µL of diazepam IS. After vortex mixing and centrifugation at 13,000 rpm for 5 min, 5 µL of supernatant was obtained for analysis by UPLC-MS/MS.
as §2

Setting [5] is: amlodipine-pretreated group vs control group, rats.
Setting [6] is: Amlodipine group (10 mg/kg amlodipine 7 days), single gavage 2 mg/kg vonoprazan, rat plasma.
Where [7] appears, read: Control group (CMC-Na 7 days), single gavage 2 mg/kg vonoprazan, rat plasma.

Usually IC50 stands for the concentration needed to halve the response being measured. On to `CCOC(=O)C1=C(COCCN)NC(C)=C(C(=O)OC)C1c1ccccc1Cl` (centres unmarked) [Amlodipine, amlodipine besylate], for which the IC50 at 30 min was 17 µM in series [1] and 7.2 µM in series [3]. In addition, the “inhibition mechanism on vonoprazan metabolism” value in series [2] (RLMs and HLMs, Lineweaver–Burk and Dixon plots) was “primarily competitive with some non-competitive inhibition”.

Regarding `COc1ccc([C@@H]2Sc3ccccc3N(CCN(C)C)C(=O)[C@@H]2OC(C)=O)cc1` [Diltiazem, diltiazem hydrochloride], the “inhibition effect on vonoprazan in preliminary in vitro evaluation” value in series [2] (RLMs, roughly 100 µM drug) is recorded as “slightly increased inhibition effects”.

By AUC(0-inf) is commonly meant total exposure, with the tail of the curve extrapolated. As usually defined, the AUC(0-t) is exposure summed from dosing to a finite time, without extrapolation to infinity. Usually Cmax stands for the peak of the concentration-time curve. Usually Tmax stands for the time at which the peak concentration occurs. Consider `O=C(O)c1cc(-c2ccccc2F)n(S(=O)(=O)c2cccnc2)c1` [MI, 5-(2-fluorophenyl)-1-(pyridin-3-ylsulfonyl)-1H-pyrrole-3-carboxylic acid], for which, in series [4] (setting [5]), the “fall of CLz/F” value amounted to 38%, the “fall of Vz/F” value worked out at 57%, the “increase of AUC” value is on record as 1.6 fold and the “increase of MRT (0-t)” value is 1.4 fold. Further, in series [4] (setting [5]), the “increase of MRT (0-∞)” value is 1.2 fold. In series [4] (setting [6]), the AUC(0-inf) stood at 2580 ± 450 ng·h/mL, the AUC(0-t) is 2550 ± 459 ng·h/mL, the Cmax came to 836 ± 176 ng/mL and the Tmax was determined as 1.58 ± 0.67 h. For the same compound, in series [4] (setting [6]), the CL/F is 13.2 mL/min/kg, the MRT last came to 2.92 ± 0.19 h, the MRT inf was determined as 3.11 ± 0.31 h and the Vd/F came to 2.25 ± 1.11 L/kg. In series [4] (setting [6]), the half-life was 1.91 ± 0.76 h. Moreover, in series [4] (setting [7]), the AUC(0-inf) is 1570 ± 189 ng·h/mL, the AUC(0-t) was found to be 1540 ± 175 ng·h/mL, the Cmax turned out to be 766 ± 85.1 ng/mL and the Tmax was found to be 1 h. Further, in series [4] (setting [7]), the CL/F was 21.5 mL/min/kg, the MRT last worked out at 2.13 ± 0.14 h, the MRT inf was determined as 2.44 ± 0.26 h and the Vd/F is 5.28 ± 2.5 L/kg. Also, the half-life in series [4] (setting [7]) is 2.91 ± 1.51 h.

Consider `CNCc1cc(-c2ccccc2F)n(S(=O)(=O)c2cccnc2)c1` [Vonoprazan, vonoprazan], for which, in series [4] (setting [6]), the “MRT(0-∞)” value is on record as 3.06 ± 0.38 h, the AUC(0-inf) was found to be 59 ± 20.9 ng·h/mL, the exposure AUC(0-t) was 58.5 ± 21.1 ng·h/mL and the Cmax turned out to be 19 ± 8.3 ng/mL. In series [4] (setting [6]), the Tmax is 1.67 ± 0.52 h, the CL/F was 614 mL/min/kg, the MRT last was determined as 2.93 ± 0.3 h and the Vd/F worked out at 95.5 ± 51.3 L/kg. In addition, the half-life in series [4] (setting [6]) was 1.73 ± 0.65 h. Further, in series [4] (setting [5]), the “decrease of CLz/F” value is “approximately by half”, the “decrease of Vz/F” value was “approximately by half”, the “increase of AUC” value is recorded as “nearly twice” and the “increase of Cmax” value is given as “nearly twice”. Besides, the “increase of Tmax” value in series [4] (setting [5]) is on record as “nearly twice”. Moreover, in series [4] (setting [7]), the area under the curve AUC(0-inf) came out at 29.1 ± 5.31 ng·h/mL, the AUC(0-t) was found to be 28.8 ± 5.14 ng·h/mL, the Cmax worked out at 10.2 ± 1.88 ng/mL and the Tmax is 0.75 ± 0.27 h. Besides, in series [4] (setting [7]), the CL/F is 1180 mL/min/kg, the MRT last is 2.72 ± 0.09 h, the MRT inf was determined as 2.87 ± 0.17 h and the Vd/F came to 190 ± 41.6 L/kg. Also, the half-life in series [4] (setting [7]) is 1.89 ± 0.37 h.
